{"source": "paper doi:10.1101/2021.09.30.462449v1", "about": "(biorxiv, 2021)", "assay_in_all_cases": "biochemical", "conditions_in_all_cases": "read-out: % inhibition mean (Z'Lyte)", "key": {"[1]": {"molecular_target": "EGFR (ErbB1) T790M L858R (Homo sapiens, UniProt P00533, L858R/T790M)"}, "[2]": {"molecular_target": "HIPK4 (Homo sapiens, UniProt Q8NE63)"}, "[3]": {"molecular_target": "GRK6 (Homo sapiens, UniProt P43250)"}, "[4]": {"molecular_target": "ITK (Homo sapiens, UniProt Q08881)"}, "[5]": {"molecular_target": "MUSK (Homo sapiens, UniProt O15146)", "sequence (O15146 whole entry)": "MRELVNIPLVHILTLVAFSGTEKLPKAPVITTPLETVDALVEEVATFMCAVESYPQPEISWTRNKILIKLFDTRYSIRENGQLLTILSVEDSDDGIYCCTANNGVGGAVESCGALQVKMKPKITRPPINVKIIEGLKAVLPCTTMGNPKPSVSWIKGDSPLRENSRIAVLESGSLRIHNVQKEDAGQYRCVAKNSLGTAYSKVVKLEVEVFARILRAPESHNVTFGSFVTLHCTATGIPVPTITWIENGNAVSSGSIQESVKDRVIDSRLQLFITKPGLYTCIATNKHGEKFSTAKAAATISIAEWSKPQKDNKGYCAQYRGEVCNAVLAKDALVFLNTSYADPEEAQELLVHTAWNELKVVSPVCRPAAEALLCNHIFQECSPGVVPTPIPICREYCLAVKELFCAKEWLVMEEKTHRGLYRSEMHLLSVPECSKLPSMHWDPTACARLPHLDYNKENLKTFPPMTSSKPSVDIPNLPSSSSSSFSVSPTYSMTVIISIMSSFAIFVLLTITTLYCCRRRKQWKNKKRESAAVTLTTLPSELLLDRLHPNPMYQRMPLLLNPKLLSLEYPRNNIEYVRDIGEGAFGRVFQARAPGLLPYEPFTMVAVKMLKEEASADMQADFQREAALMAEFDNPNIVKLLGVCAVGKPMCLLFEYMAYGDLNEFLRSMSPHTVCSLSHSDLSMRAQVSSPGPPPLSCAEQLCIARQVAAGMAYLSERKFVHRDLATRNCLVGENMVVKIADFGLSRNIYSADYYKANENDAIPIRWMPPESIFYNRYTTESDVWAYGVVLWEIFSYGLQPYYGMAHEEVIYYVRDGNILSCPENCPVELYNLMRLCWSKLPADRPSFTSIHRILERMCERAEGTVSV"}, "[6]": {"molecular_target": "CDC42 BPA (MRCKA) (Homo sapiens, UniProt Q5VT25)"}, "[7]": {"molecular_target": "MKNK1 (MNK1) (Homo sapiens, UniProt Q9BUB5)"}, "[8]": {"molecular_target": "RPS6KA3 (RSK2) (Homo sapiens, UniProt P51812)"}, "[9]": {"molecular_target": "PRKCQ (PKC theta) (Homo sapiens, UniProt Q04759)"}, "[10]": {"molecular_target": "EPHB3 (Homo sapiens, UniProt P54753)"}, "[11]": {"molecular_target": "MAP4K4 (HGK) (Homo sapiens, UniProt O95819)"}, "[12]": {"molecular_target": "EPHB1 (Homo sapiens, UniProt P54762)", "sequence (P54762 whole entry)": "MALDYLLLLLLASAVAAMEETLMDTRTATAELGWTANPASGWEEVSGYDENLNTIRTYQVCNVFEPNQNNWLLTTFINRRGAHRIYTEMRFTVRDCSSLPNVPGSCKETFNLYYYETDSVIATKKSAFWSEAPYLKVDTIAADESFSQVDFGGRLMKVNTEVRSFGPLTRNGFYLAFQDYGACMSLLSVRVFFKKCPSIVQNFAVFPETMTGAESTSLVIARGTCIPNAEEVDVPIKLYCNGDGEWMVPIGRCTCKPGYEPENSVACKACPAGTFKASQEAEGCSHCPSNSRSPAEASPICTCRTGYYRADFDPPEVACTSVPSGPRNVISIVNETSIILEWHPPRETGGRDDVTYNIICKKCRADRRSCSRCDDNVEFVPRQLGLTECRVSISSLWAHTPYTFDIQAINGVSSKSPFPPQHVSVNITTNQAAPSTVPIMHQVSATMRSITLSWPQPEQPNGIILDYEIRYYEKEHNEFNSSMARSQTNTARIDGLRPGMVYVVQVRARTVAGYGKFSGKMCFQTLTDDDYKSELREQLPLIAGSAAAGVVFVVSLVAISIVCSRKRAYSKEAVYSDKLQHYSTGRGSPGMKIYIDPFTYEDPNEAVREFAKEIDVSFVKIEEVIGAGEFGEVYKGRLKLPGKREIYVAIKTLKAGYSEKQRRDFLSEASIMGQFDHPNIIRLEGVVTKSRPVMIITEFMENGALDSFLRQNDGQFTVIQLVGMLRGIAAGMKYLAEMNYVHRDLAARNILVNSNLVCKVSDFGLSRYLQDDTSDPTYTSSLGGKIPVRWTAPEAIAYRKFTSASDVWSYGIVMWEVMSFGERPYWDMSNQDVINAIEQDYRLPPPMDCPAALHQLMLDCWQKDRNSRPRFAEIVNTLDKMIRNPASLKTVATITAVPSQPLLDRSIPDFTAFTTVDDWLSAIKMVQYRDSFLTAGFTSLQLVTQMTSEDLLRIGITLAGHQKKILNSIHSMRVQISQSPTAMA"}, "[13]": {"molecular_target": "CAMK2A (CaMKII alpha) (Homo sapiens, UniProt Q9UQM7)", "sequence (Q9UQM7 whole entry)": "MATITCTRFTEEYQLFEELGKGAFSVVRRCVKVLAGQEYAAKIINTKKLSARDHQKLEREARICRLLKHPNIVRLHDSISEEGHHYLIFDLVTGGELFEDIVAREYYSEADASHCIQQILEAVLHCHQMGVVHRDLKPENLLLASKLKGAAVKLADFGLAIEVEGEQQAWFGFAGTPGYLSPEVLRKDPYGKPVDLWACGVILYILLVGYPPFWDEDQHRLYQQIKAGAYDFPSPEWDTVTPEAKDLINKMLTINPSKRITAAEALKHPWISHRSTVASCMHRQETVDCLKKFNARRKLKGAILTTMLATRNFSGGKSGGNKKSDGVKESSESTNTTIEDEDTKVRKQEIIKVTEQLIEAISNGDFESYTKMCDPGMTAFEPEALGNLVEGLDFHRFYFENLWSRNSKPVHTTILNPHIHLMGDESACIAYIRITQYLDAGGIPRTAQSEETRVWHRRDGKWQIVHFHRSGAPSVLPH"}, "[14]": {"molecular_target": "DCAMKL1 (DCLK1) (Homo sapiens, UniProt O15075)"}, "[15]": {"molecular_target": "FES (FPS) (Homo sapiens, UniProt P07332)", "sequence (P07332 whole entry)": "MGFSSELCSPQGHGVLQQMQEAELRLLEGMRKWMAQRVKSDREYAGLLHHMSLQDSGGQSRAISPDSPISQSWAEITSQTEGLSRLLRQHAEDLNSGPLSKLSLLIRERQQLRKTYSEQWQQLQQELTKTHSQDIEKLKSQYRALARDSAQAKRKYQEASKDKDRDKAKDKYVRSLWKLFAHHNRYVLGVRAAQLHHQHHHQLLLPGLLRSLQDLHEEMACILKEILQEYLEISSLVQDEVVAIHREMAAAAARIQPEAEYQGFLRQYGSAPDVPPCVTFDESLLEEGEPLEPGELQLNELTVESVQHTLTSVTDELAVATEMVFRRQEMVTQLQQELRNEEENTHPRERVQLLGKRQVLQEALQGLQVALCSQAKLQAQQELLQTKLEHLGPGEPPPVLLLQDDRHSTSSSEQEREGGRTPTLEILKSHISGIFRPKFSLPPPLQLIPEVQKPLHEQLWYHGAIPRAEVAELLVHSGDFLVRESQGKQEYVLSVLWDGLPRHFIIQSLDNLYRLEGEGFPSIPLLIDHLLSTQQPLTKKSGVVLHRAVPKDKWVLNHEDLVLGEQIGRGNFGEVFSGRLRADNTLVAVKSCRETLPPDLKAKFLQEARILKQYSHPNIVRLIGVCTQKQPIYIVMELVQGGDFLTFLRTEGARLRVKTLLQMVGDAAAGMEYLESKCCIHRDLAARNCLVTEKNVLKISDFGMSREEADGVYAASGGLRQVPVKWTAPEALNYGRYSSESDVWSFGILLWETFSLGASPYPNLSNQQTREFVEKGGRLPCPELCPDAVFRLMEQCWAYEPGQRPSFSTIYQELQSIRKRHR"}, "[16]": {"molecular_target": "RPS6KB2 (p70S6Kb) (Homo sapiens, UniProt Q9UBS0)", "sequence (Q9UBS0 whole entry)": "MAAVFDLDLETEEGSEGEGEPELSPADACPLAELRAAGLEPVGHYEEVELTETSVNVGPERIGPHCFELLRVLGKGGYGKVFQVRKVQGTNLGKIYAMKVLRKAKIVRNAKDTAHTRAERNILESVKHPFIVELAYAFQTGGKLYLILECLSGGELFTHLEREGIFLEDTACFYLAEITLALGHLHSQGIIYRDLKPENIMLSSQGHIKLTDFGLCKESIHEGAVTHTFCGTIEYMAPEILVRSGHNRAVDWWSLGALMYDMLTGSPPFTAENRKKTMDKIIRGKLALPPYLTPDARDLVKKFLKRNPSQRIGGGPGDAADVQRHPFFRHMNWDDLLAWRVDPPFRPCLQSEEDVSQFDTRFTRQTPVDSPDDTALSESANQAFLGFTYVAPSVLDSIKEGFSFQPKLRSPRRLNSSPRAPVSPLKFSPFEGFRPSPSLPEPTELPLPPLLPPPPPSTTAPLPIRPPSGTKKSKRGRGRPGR"}, "[17]": {"molecular_target": "MAP4K5 (KHS1) (Homo sapiens, UniProt Q9Y4K4)"}, "[18]": {"molecular_target": "PHKG1 (Homo sapiens, UniProt Q16816)", "sequence (Q16816 whole entry)": "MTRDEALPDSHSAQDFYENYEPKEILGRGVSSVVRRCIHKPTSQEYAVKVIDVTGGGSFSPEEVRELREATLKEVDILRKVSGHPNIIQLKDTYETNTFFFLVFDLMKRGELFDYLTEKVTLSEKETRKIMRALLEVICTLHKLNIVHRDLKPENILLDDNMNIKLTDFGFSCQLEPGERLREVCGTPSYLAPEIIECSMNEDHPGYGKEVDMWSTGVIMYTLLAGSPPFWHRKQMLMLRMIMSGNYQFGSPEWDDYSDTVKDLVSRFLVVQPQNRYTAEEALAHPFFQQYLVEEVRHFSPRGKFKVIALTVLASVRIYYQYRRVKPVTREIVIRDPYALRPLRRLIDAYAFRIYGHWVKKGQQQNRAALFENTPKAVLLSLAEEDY"}, "[19]": {"molecular_target": "EGFR (ErbB1) T790M C797S L858R (Homo sapiens, UniProt P00533, C797S/L858R/T790M)"}, "[20]": {"molecular_target": "FYN (Homo sapiens, UniProt P06241)"}, "[21]": {"molecular_target": "KIT T670I (Homo sapiens, UniProt P10721, T670I)"}, "[22]": {"molecular_target": "FLT3 (Homo sapiens, UniProt P36888)"}, "[23]": {"molecular_target": "SNF1LK2 (Homo sapiens, UniProt Q9H0K1)"}, "[24]": {"molecular_target": "YES1 (Homo sapiens, UniProt P07947)"}, "[25]": {"molecular_target": "RET V804L (Homo sapiens, UniProt P07949, V804L)"}, "[26]": {"molecular_target": "ERBB4 (HER4) (Homo sapiens, UniProt Q15303)"}, "[27]": {"molecular_target": "PRKCG (PKC gamma) (Homo sapiens, UniProt P05129)"}, "[28]": {"molecular_target": "PTK2B (FAK2) (Homo sapiens, UniProt Q14289)"}}, "data": [{"smiles": "COc1ccc2nc3cc(Cl)ccc3c(Nc3cc(CN4CCCC4)c(O)c(CN4CCCC4)c3)c2n1", "note": "[Pyronaridine, 4-[(7-Chloro-2-methoxybenzo[b][1,5]naphthyridin-10-yl)amino]-2,6-bis(1-pyrrolidinylmethyl)phenol phosphate (1:4)]", "values": [{"measurement": "inhibition at 1 µM", "setting": "[1]", "result": 5, "unit": "%"}, {"measurement": "inhibition at 1 µM", "setting": "[2]", "result": 5, "unit": "%"}, {"measurement": "inhibition at 1 µM", "setting": "[3]", "result": -1, "unit": "%"}, {"measurement": "inhibition at 1 µM", "setting": "[4]", "result": 2, "unit": "%"}, {"measurement": "inhibition at 1 µM", "setting": "[5]", "result": -10, "unit": "%"}, {"measurement": "inhibition at 1 µM", "setting": "[6]", "result": 2, "unit": "%"}, {"measurement": "inhibition at 1 µM", "setting": "[7]", "result": 4, "unit": "%"}, {"measurement": "inhibition at 1 µM", "setting": "[8]", "result": 10, "unit": "%"}, {"measurement": "inhibition at 1 µM", "setting": "[9]", "result": 8, "unit": "%"}, {"measurement": "inhibition at 1 µM", "setting": "[10]", "result": -1, "unit": "%"}, {"measurement": "inhibition at 1 µM", "setting": "[11]", "result": 1, "unit": "%"}, {"measurement": "inhibition at 1 µM", "setting": "[12]", "result": 2, "unit": "%"}, {"measurement": "inhibition at 1 µM", "setting": "[13]", "result": 4, "unit": "%"}, {"measurement": "inhibition at 1 µM", "setting": "[14]", "result": 0, "unit": "%"}, {"measurement": "inhibition at 1 µM", "setting": "[15]", "result": -10, "unit": "%"}, {"measurement": "inhibition at 1 µM", "setting": "[16]", "result": -4, "unit": "%"}, {"measurement": "inhibition at 1 µM", "setting": "[17]", "result": 5, "unit": "%"}, {"measurement": "inhibition at 1 µM", "setting": "[18]", "result": -1, "unit": "%"}, {"measurement": "inhibition at 1 µM", "setting": "[19]", "result": 2, "unit": "%"}, {"measurement": "inhibition at 1 µM", "setting": "[20]", "result": 2, "unit": "%"}, {"measurement": "inhibition at 1 µM", "setting": "[21]", "result": 1, "unit": "%"}, {"measurement": "inhibition at 1 µM", "setting": "[22]", "result": 3, "unit": "%"}, {"measurement": "inhibition at 1 µM", "setting": "[23]", "result": -5, "unit": "%"}, {"measurement": "inhibition at 1 µM", "setting": "[24]", "result": -6, "unit": "%"}, {"measurement": "inhibition at 1 µM", "setting": "[25]", "result": 1, "unit": "%"}, {"measurement": "inhibition at 1 µM", "setting": "[26]", "result": -2, "unit": "%"}, {"measurement": "inhibition at 1 µM", "setting": "[27]", "result": -4, "unit": "%"}, {"measurement": "inhibition at 1 µM", "setting": "[28]", "result": -1, "unit": "%"}]}]}
